Reference: patent publication US20150374666A1, “AQUEOUS LIQUID COMPOSITION INCLUDING HIGH CONCENTRATION OF L-HISTIDINE” (AJINOMOTO CO., INC., priority 2013, published 2015)

Assay: solubility of histidine added to acidic aqueous solution, left standing at room temperature for 24 hr
Assay type: physicochemical
Protocol: Acidic substances (acetic acid, phosphoric acid, citric acid, malic acid, or tartaric acid) in the amounts indicated in Table 1 were added to and dissolved in water at 80 to 100° C. to prepare acidic aqueous solutions. Then, to the prepared acidic aqueous solutions was added histidine (HIS) in the amounts indicated in Table 1, and the mixtures were thoroughly stirred. The mixtures were left standing at room temperature for 24 hr, and the solubility of histidine was examined.
Acidic substances (citric acid, malic acid or tartaric acid) in the amounts indicated in Table 2 were added to and dissolved in water at 80 to 100° C. to prepare acidic aqueous solutions. Then, to the prepared acidic aqueous solutions was added histidine (HIS) in the amounts indicated in Table 2 to a concentration of not less than 45 wt %, and the mixtures were thoroughly stirred. The mixtures were left standing at room temperature for 24 hr, and the solubility of histidine was examined. In Table 2, “-” in the pH column means unmeasurable. In Table 2, the composition with *2 was prepared after preparation of the composition with *1, by reducing the amount of water by evaporation under reduced pressure.
Citric acid in the amount indicated in Tables 3 to 5 were added to and dissolved in water at 80 to 100° C. to prepare acidic aqueous solutions. Then, to the prepared acidic aqueous solutions was added histidine (HIS) in the amounts indicated in Tables 3 to 5, and the mixtures were thoroughly stirred. The mixtures were left standing at room temperature for 24 hr, and the solubility of histidine was examined. In Table 5, the composition with *2 was prepared after preparation of the composition with *1, by reducing the amount of water by evaporation under reduced pressure.
Acidic substances (citric acid or malic acid) in the amounts indicated in Table 6 and 7 were added to and dissolved in water at 80 to 100° C. to prepare acidic aqueous solutions. Then, to the prepared acidic aqueous solutions was added histidine in the amounts indicated in Table 6 and 7 to a concentration of 20 wt % or 30 wt %, and the mixtures were thoroughly stirred. The mixtures were left standing at room temperature for 24 hr, and the solubility of histidine was examined.

N[C@@H](Cc1c[nH]cn1)C(=O)O [HIS, histidine]
preparation of liquid composition having a histidine concentration of not less than 47.4 wt % (0.56 part by weight of citric acid or malic acid per 1 part by weight of histidine): could not be prepared
solubility (Table 1: citric acid 60 g, water 50 g, His 90 g, acidic substance/HIS 0.67 W/W, pH before His addition 0.40, HIS concentration 45.0 % (W/W) in liquid, room temperature 24 hr): ∘
solubility (Table 1: citric acid 65 g, water 50 g, His 100 g, acidic substance/HIS 0.65 W/W, pH before His addition 0.30, HIS concentration 46.5 % (W/W) in liquid, room temperature 24 hr): ∘
solubility (Table 1: citric acid 80 g, water 50 g, His 120 g, acidic substance/HIS 0.67 W/W, pH before His addition 0.10, HIS concentration 48.0 % (W/W) in liquid, room temperature 24 hr): ∘
solubility (Table 1: malic acid 60 g, water 50 g, His 90 g, acidic substance/HIS 0.67 W/W, pH before His addition 0.40, HIS concentration 45.0 % (W/W) in liquid, room temperature 24 hr): ∘
solubility (Table 1: tartaric acid 60 g, water 50 g, His 90 g, acidic substance/HIS 0.67 W/W, pH before His addition 0.20, HIS concentration 45.0 % (W/W) in liquid, room temperature 24 hr): ∘
solubility (Table 2 (*1): citric acid 60 g, water 50 g, His 90 g, acidic substance/HIS 0.67 W/W, pH before His addition 0.40, HIS concentration 45.0 % (W/W) in liquid, room temperature 24 hr): ∘
solubility (Table 2 (*2, water reduced by evaporation under reduced pressure from *1): citric acid 60 g, water 10 g, His 90 g, acidic substance/HIS 0.67 W/W, HIS concentration 56.3 % (W/W) in liquid): ∘
solubility (Table 2 (*2, water reduced by evaporation under reduced pressure from *1): citric acid 60 g, water 20 g, His 90 g, acidic substance/HIS 0.67 W/W, HIS concentration 52.9 % (W/W) in liquid): ∘
solubility (Table 2: citric acid 65 g, water 50 g, His 100 g, acidic substance/HIS 0.65 W/W, pH before His addition 0.30, HIS concentration 46.5 % (W/W) in liquid, room temperature 24 hr): ∘
solubility (Table 2: citric acid 80 g, water 50 g, His 120 g, acidic substance/HIS 0.67 W/W, pH before His addition 0.10, HIS concentration 48.0 % (W/W) in liquid, room temperature 24 hr): ∘
solubility (Table 2: citric acid 120 g, water 50 g, His 180 g, acidic substance/HIS 0.67 W/W, HIS concentration 51.4 % (W/W) in liquid, room temperature 24 hr): ∘
solubility (Table 2: malic acid 60 g, water 50 g, His 90 g, acidic substance/HIS 0.67 W/W, pH before His addition 0.40, HIS concentration 45.0 % (W/W) in liquid, room temperature 24 hr): ∘
solubility (Table 2: malic acid 70 g, water 50 g, His 100 g, acidic substance/HIS 0.70 W/W, HIS concentration 45.5 % (W/W) in liquid, room temperature 24 hr): ∘
solubility (Table 2: tartaric acid 60 g, water 50 g, His 90 g, acidic substance/HIS 0.67 W/W, pH before His addition 0.20, HIS concentration 45.0 % (W/W) in liquid, room temperature 24 hr): ∘
solubility (Table 2: tartaric acid 60 g, water 50 g, His 100 g, acidic substance/HIS 0.60 W/W, pH before His addition 0.20, HIS concentration 47.6 % (W/W) in liquid, room temperature 24 hr): ∘
solubility of histidine (Table 3: amount of histidine added to acidic aqueous solution (water 50 g, citric acid 60 g) reduced): fine
solubility (Table 3: citric acid 60 g, water 50 g, His 30 g, acidic substance/HIS 2.00 W/W, HIS concentration 21.4 % (W/W) in liquid, room temperature 24 hr): ◯
solubility (Table 3: citric acid 60 g, water 50 g, His 50 g, acidic substance/HIS 1.20 W/W, HIS concentration 31.3 % (W/W) in liquid, room temperature 24 hr): ◯
solubility (Table 3: citric acid 60 g, water 50 g, His 70 g, acidic substance/HIS 0.86 W/W, HIS concentration 38.9 % (W/W) in liquid, room temperature 24 hr): ◯
solubility (Table 3: citric acid 60 g, water 50 g, His 90 g, acidic substance/HIS 0.67 W/W, HIS concentration 45.0 % (W/W) in liquid, room temperature 24 hr): ◯
solubility (Table 4: citric acid 20.0 g, water 50 g, His 30 g, acidic substance/HIS 0.67 W/W, HIS concentration 30.0 % (W/W) in liquid, room temperature 24 hr): ◯
solubility (Table 4: citric acid 33.3 g, water 50 g, His 50 g, acidic substance/HIS 0.67 W/W, HIS concentration 37.5 % (W/W) in liquid, room temperature 24 hr): ◯
solubility (Table 4: citric acid 46.7 g, water 50 g, His 70 g, acidic substance/HIS 0.67 W/W, HIS concentration 42.0 % (W/W) in liquid, room temperature 24 hr): ◯
solubility (Table 4: citric acid 60 g, water 50 g, His 90 g, acidic substance/HIS 0.67 W/W, HIS concentration 45.0 % (W/W) in liquid, room temperature 24 hr): ◯
solubility of histidine (Table 4: histidine and acidic substance reduced at constant ratio, acidic substance/HIS=0.67 (w/w)): fine
solubility (Table 5 (*1): citric acid 60 g, water 27.8 g, His 50 g, acidic substance/HIS 1.20 W/W, HIS concentration 36.3 % (W/W) in liquid, HIS content 180 % (W/W) to water, room temperature 24 hr): ◯
solubility (Table 5 (*2): citric acid 60 g, water 16.7 g, His 30 g, acidic substance/HIS 2.00 W/W, HIS concentration 28.1 % (W/W) in liquid, HIS content 180 % (W/W) to water): ◯
solubility (Table 5: citric acid 60 g, water 38.9 g, His 70 g, acidic substance/HIS 0.86 W/W, HIS concentration 41.4 % (W/W) in liquid, HIS content 180 % (W/W) to water, room temperature 24 hr): ◯
solubility (Table 5: citric acid 60 g, water 50 g, His 90 g, acidic substance/HIS 0.67 W/W, HIS concentration 45.0 % (W/W) in liquid, HIS content 180 % (W/W) to water, room temperature 24 hr): ◯
solubility of histidine (Table 5: histidine and water reduced at constant ratio, histidine content to water=180% (w/w)): fine
solubility (Table 6: citric acid 2.7 g, water 37.3 g, His 10 g, acidic substance/HIS 0.27 W/W, HIS concentration 20.0 % (W/W) in liquid, room temperature 24 hr): ∘
solubility (Table 6: citric acid 3.7 g, water 36.3 g, His 10 g, acidic substance/HIS 0.37 W/W, HIS concentration 20.0 % (W/W) in liquid, room temperature 24 hr): ∘
solubility (Table 6: citric acid 4.7 g, water 35.3 g, His 10 g, acidic substance/HIS 0.47 W/W, HIS concentration 20.0 % (W/W) in liquid, room temperature 24 hr): ∘
solubility (Table 6: citric acid 5.7 g, water 34.3 g, His 10 g, acidic substance/HIS 0.57 W/W, HIS concentration 20.0 % (W/W) in liquid, room temperature 24 hr): ∘
solubility (Table 6: citric acid 6.7 g, water 33.3 g, His 10 g, acidic substance/HIS 0.67 W/W, HIS concentration 20.0 % (W/W) in liquid, room temperature 24 hr): ∘
solubility (Table 6: malic acid 2.7 g, water 37.3 g, His 10 g, acidic substance/HIS 0.27 W/W, HIS concentration 20.0 % (W/W) in liquid, room temperature 24 hr): ∘
solubility (Table 7: citric acid 6.0 g, water 29.0 g, His 15 g, acidic substance/HIS 0.40 W/W, HIS concentration 30.0 % (W/W) in liquid, room temperature 24 hr): ∘
solubility (Table 7: citric acid 7.0 g, water 28.0 g, His 15 g, acidic substance/HIS 0.47 W/W, HIS concentration 30.0 % (W/W) in liquid, room temperature 24 hr): ∘
solubility (Table 7: citric acid 8.0 g, water 27.0 g, His 15 g, acidic substance/HIS 0.53 W/W, HIS concentration 30.0 % (W/W) in liquid, room temperature 24 hr): ∘
solubility (Table 7: citric acid 9.0 g, water 26.0 g, His 15 g, acidic substance/HIS 0.60 W/W, HIS concentration 30.0 % (W/W) in liquid, room temperature 24 hr): ∘
solubility (Table 7: citric acid 10.0 g, water 25.0 g, His 15 g, acidic substance/HIS 0.67 W/W, HIS concentration 30.0 % (W/W) in liquid, room temperature 24 hr): ∘
solubility (Table 7: malic acid 6.0 g, water 29.0 g, His 15 g, acidic substance/HIS 0.40 W/W, HIS concentration 30.0 % (W/W) in liquid, room temperature 24 hr): ∘
solubility of histidine (acetic acid or phosphoric acid as acidic substance, acidic aqueous solution pH of not more than 1.0, room temperature 24 hr): not dissolved or, even when dissolved, precipitated
solubility of histidine (citric acid, malic acid or tartaric acid as acidic substance, pH of not more than 1.0, amount corresponding to concentration of not less than 45 wt %): finely dissolved
solubility of histidine (histidine 20 wt %, 0.17 part by weight of acidic substance per 1 part by weight of histidine): not dissolved
solubility of histidine (histidine 20 wt %, not less than 0.27 part by weight of acidic substance per 1 part by weight of histidine): fine
solubility of histidine (histidine 30 wt %, 0.33 part by weight of acidic substance per 1 part by weight of histidine): not dissolved
solubility of histidine (histidine 30 wt %, not less than 0.40 part by weight of acidic substance per 1 part by weight of histidine): fine
histidine concentration of liquid composition that could be prepared (not less than 0.65 part by weight of citric acid, not less than 0.67 of malic acid, or not less than 0.60 of tartaric acid per 1 part by weight of histidine): not less than 45 wt %
